Measurements reported in US10725057B2, “Method for pretreatment and method for analysis of lenalidomide in biological sample” (Shiseido Company, Ltd, priority 2014, dated 2020).

Key:
[1] = Racemization half-life in human serum (37° C.); conditions: for half-life in human serum compared to buffer: pH 7.4; for racemization half-life in serum, times longer than the corresponding TD enantiomer: human serum, 37° C.
From the text: The analysis method of the invention is shown as FIG. 15(b). The acid used to suspend the reaction while simultaneously precipitating and removing the protein was HClO4.
(§1) Apparatus: Nanospace SI-2 Series (Shiseido Corp.)

[2] = Racemization half-life under biological buffer conditions (Na-phosphorate buffer pH 7.4, 37° C.); conditions: average of 3 tests ± SD
[3] = Dependence of racemization of lenalidomide enantiomers on pH in aqueous buffers at room temperature; format: physicochemical
[4] = NPL 5; cited from earlier work
[5] = human blood plasma (NPL 10); cited from earlier work
[6] = test system: corneal vascularization elicited by bFGF or VEGF; conditions: compared to the R-form or racemic form (NPL 6); cited from earlier work
[7] = Stability of lenalidomide in different solvents (HPLC peak areas of the enantiomers); format: physicochemical; conditions: 0.5 mg/mL racemic mixture, room temperature or 50° C., 24 hours
Experimental: A racemic mixture of 0.5 mg/mL lenalidomide in methanol, ethanol, isopropanol, acetonitrile or ethyl acetate, as the sample (product of Selleck Chemicals, US) was incubated at room temperature or at 50° C. for 24 hours, and the following HPLC conditions were employed for quantification of the lenalidomide enantiomers, for evaluation of the stability of lenalidomide in the different solvents.
as §1
Mobile phase: EtOH (100%)
Injection volume: 5 μL, Detection: UV 230 nm.
The peak areas for the enantiomers before and after incubation are shown in FIG. 1 (the initially observed peaks are enantiomer 1, and the next observed peaks are enantiomer 2). […] Lenalidomide was also stable even in isopropanol.

[8] = test system: recurrent intractable multiple myeloma; conditions: in combination with dexamethasone; cited from earlier work

O=C1CC[C@H](N2C(=O)c3ccccc3C2=O)C(=O)N1 [(S)-TD, S-thalidomide]
racemization half-life in human serum [1]: 0.363 ± 0.0167 h | half-life in human serum compared to buffer [1]: 8.2% | racemization half-life in aqueous buffer [2]: 4.43 ± 0.167 h

Nc1cccc2c1CN([C@H]1CCC(=O)NC1=O)C2=O (single isomer, unassigned) [(S*)-LL]
racemization on incubation in aqueous buffer ([3]; pH 6, room temperature): A small amount of (R*)-LL was produced | racemization on incubation in aqueous buffer ([3]; pH 7 and higher, room temperature): racemization was significantly accelerated | racemization half-life in serum, times longer than the corresponding TD enantiomer [1]: 6 times | racemization half-life in human serum [1]: 2.18 ± 0.0817 h | racemization half-life in aqueous buffer [2]: 4.53 ± 0.0217 h

O=C1CC[C@@H](N2C(=O)c3ccccc3C2=O)C(=O)N1 [(R)-TD, R-thalidomide]
racemization half-life in human serum [1]: 0.548 ± 0.417 h | half-life in human serum compared to buffer [1]: 11.1% | racemization half-life in aqueous buffer [2]: 4.92 ± 0.4 h

O=C1CCC(N2C(=O)c3ccccc3C2=O)C(=O)N1 (racemic) [thalidomide]
sedative action [4]: only been reported with the R-form | racemization half-life in human blood plasma [5]: approximately 10 minutes

3-amino-phthalimide-glutarimide [S-pomalidomide]
inhibition of corneal vascularization [6]: significantly inhibit

Nc1cccc2c1CN([C@@H]1CCC(=O)NC1=O)C2=O (single isomer, unassigned) [(R*)-LL]
racemization half-life in serum, times longer than the corresponding TD enantiomer [1]: 3 times | racemization half-life in human serum [1]: 1.82 ± 0.0333 h | racemization half-life in aqueous buffer [2]: 4.45 ± 0.0183 h

Nc1cccc2c1CN(C1CCC(=O)NC1=O)C2=O (racemic) [lenalidomide, Lenalidomide]
stability in solvent (decomposition) ([7]; acetonitrile and ethyl acetate): no decomposition was observed | stability in solvent ([7]; isopropanol): stable | stability in solvent ([7]; methanol and ethanol): highly unstable | stability of the enantiomers ([3]; acidic conditions (<pH 4)): stable | increase of racemization half-life for every pH reduction of 1 ([3]; aqueous buffers pH 4 to 9, room temperature): 10 times | racemization half-life ([3]; pH 4, room temperature): estimation of the half-life was no longer possible | racemization and decomposition (peak areas) in aqueous buffer ([3]; pH 9 and 8, room temperature): racemization and decomposition of LL takes place | success rate [8]: 60%
